Reference: ChEMBL document CHEMBL1158203, “A novel monogalactosylacylglycerol with inhibitory effect on platelet aggregation from the cyanophyceae Oscillatoria rosea” (J Nat Prod, 1996)
Active and inactive are the calls of the source. No cut-off for these calls is given here.

Assays:
Platelet [1] = assay: Inhibition of thrombin-induced platelet aggregation in rabbit platelet-rich plasma at 100 ug/mL by turbidimetric method; assay type: functional, cell-free; conditions: Oryctolagus cuniculus
Platelet [2] = assay: Inhibition of ionomycin-induced platelet aggregation in rabbit platelet-rich plasma at 100 ug/mL by turbidimetric method; assay type: functional, cell-free; conditions: Oryctolagus cuniculus
Platelet [3] = assay: Inhibition of U46619-induced platelet aggregation in rabbit platelet-rich plasma at 100 ug/mL by turbidimetric method; assay type: functional, cell-free; conditions: Oryctolagus cuniculus
Platelet [4] = assay: Inhibition of U46619-induced platelet aggregation in rabbit platelet-rich plasma by turbidimetric method; assay type: functional, cell-free; conditions: Oryctolagus cuniculus
P388 = assay: Cytotoxicity against mouse P388 cells by MTT assay; assay type: functional

Compound | Activity (Platelet [1]) | Activity (Platelet [2]) | Activity (Platelet [3]) | IC50 (Platelet [4]) [µM] | Activity (P388) [µg/mL]
CCCCCCCCCCCCCC(=O)OC[C@@H](O)COP(=O)([O-])OCC[N+](C)(C)C | Active | Active | Active |  | 
CCCCCCCCCCCCCCCC(=O)OC[C@@H](O)CO[C@@H]1O[C@H](CO)[C@H](O)[C@H](O)C1O (single isomer, unassigned) | inactive | inactive | Active | 60 | >50
